Measured values from PubChem BioAssay AID2060624 (Molecular Pharmacology Branch, DTP, NCI, 2025).
“And” between values parts separate entries of the source, which are not always exact repeats. Equal values may be shown once.

System: 217524-143-R1-J4-PDC spheroids with HUVEC/MSC, viability
Test: Anticancer human tumor 217524-143-R1-J4-PDC patient-derived pancreatic carcinoma cell line growth inhibition [CLK]
Conditions: for viability, T/C: stronger effect = lower value
Description: A high-throughput screen of multi-cell type tumor spheroids was designed to identify active combinations of […] and targeted small molecules. Complex spheroids include a stromal component modeled by human endothelial cells (HUVEC) and fibroblasts modeled by human mesenchymal stem cells (MSCs). The concentration ranges selected for each drug and investigational agent were based upon clinically achievable concentrations if the clinical Cmax of the agent was known.
Compounds. The drugs and investigational agents: cirtuvivint (SM08502; NSC835563), CC-671 (NSC850746), vemurafenib (NSC761431), tapotoclax (NSC804041), sotorasib (NSC818433), adagrasib (NSC831453), MRTX-1133 (NSC836407), BAY2416964 (NSC825713), copanlisib (NSC816437), inavolisib (NSC800729), abemaciclib (NSC768073), osimertinib (NSC779217), entinostat (NSC756642), eltanexor (KPT-8602, NSC794443), venetoclax (NSC766270), ceralasertib (NSC777638), bortezomib (NSC756655), olaparib (NSC753686), talazoparib (NSC767125), alisertib (NSC759677), peposertib (NSC802822), gemcitabine (NSC613327), 5-fluorouracil (NSC19893), SN-38 (NSC673596), oxaliplatin (NSC266046), paclitaxel (NSC125973), and doxorubicin (NSC123127), were obtained from the National Cancer Institute (NCI) Developmental Therapeutics Program Chemical Repository. The FDA-approved anticancer drug set is available from the Developmental Therapeutics Program at https://dtp.cancer.gov/organization/dscb/obtaining/available plates.htm. […] The stock solutions were prepared in dimethyl sulfoxide (DMSO, Sigma-Aldrich, St. Louis, MO, cat. D2650), except for the platinum complexes which were prepared in saline (Quality Biological, Gaithersburg, MD, cat. 114-055-101), at 800-fold the tested concentration and stored at -70 degrees C prior to their use. All drugs and investigational agents were tested over a range starting from a high concentration at or near the clinical Cmax and decreasing in half-log increments. If the clinical Cmax for an agent had not been determined, the highest concentration tested was 10 microM.
Cell Culture. All cells were maintained in an incubator at 37 degrees C and 5% CO2 with 95% humidity. The PDC lines were cultured according to standard operating procedures established by the NCI PDMR. Briefly, all PDCs were thawed and cultured in Matrigel-coated flasks prepared with a working solution of 1X Ham's F-12 nutrient mix, without supplementation (Invitrogen, Waltham, MA, cat. 11765054), 100 U/mL penicillin-streptomycin (Invitrogen, cat. 15140122), and 2.5% Matrigel (Corning Inc., Corning, NY, cat. 354248) for the first three passages. The 947758-054-R-J2-PDC line was cultured in 6B/Colon 1A media, which includes advanced DMEM/F-12 (Thermo Fisher Scientific, cat. 12634028), 10 mM HEPES (Thermo Fisher Scientific, cat. 15630080), 1X GlutaMAX supplement (Thermo Fisher Scientific, cat. 35050061), 0.1 mg/mL primocin (InvivoGen, cat. ant-pm-2), 10% defined fetal bovine serum, heat inactivated (HyClone Laboratories Inc., cat. SH30070.03HI), 1.25 mM N-Acetyl-L-cysteine (Sigma-Aldrich, cat. A9165), 10 mM nicotinamide (Sigma-Aldrich, cat. N0636), 1X B-27 supplement (Thermo Fisher Scientific, cat. 17504044), 1X N-2 supplement (Thermo Fisher Scientific, cat. 17502048), and 10 microM Y-27632 dihydrochloride (Tocris Bioscience, cat. 1254). The 876862-298-R-J1-PDC was cultured in 6E media, which includes all 6B/Colon 1A media components plus 50% L-WRN conditioned media (ATCC, cat. CRL-3276), 50 ng/mL recombinant human EGF recombinant protein (hEGF; Thermo Fisher Scientific, cat. PHG0311), 10 ng/mL recombinant human fibroblast growth factor 10 (hGFG-10; PeproTech, cat. 100-26), 1 ng/mL recombinant human fibroblast growth factor 2 (hFGF-2; PeproTech, cat. 100-18B), and 1 µM prostaglandin E2 (PGE2; Tocris, cat. 2296). The 227483-062-R1-J1-PDC line was cultured in Panc media, containing all 6E components except hFGF-2, with the addition of 500 nM SB-431542 (Selleckchem, cat. S1067) and 10 nM gastrin (Tocris, cat. 3006). […]
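Note: spheroids exposed to agents for seven days before reading.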
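Throughout, for viability, T/C: 100% = DMSO vehicle control viability.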

CN1CCN(c2cc(C(=O)Nc3cc4cc(-c5cnn(C)c5)ccc4cn3)ccn2)CC1
viability, T/C (compound 0.1 µM): 54.9% [middle of 12 runs]
viability, T/C (compound 0.316 µM): 21.7% [middle of 12 runs]
viability, T/C (compound 1 µM): 1.79% [middle of 12 runs]
viability, T/C (compound 3.16 µM): 0.9% [middle of 12 runs]
viability, T/C (compound 10 µM): 0.22% [middle of 9 runs]
IC50 (compound alone, run of 07/31/2023): 119 nM [middle of 12 runs]

COc1ccc([C@@H](O)c2cc(-c3ncnc4cc(N5CCOCC5)ccc34)c(F)cc2Cl)nn1
viability, T/C (compound 0.0316 µM): 100% and 86.5%
viability, T/C (compound 0.1 µM): 68.5% and 86.3%
viability, T/C (compound 0.316 µM): 58.5% and 56.8%
viability, T/C (compound 1 µM): 52.6% and 42.2%
viability, T/C (compound 3.16 µM): 34.3% and 27.2%
viability, T/C (compound 10 µM): 10.5% and 11.7%
IC50 (curve of compound): 756 nM and 632 nM

COc1cccc2c1C(=O)c1c(O)c3c(c(O)c1C2=O)CC(O)(C(=O)CO)CC3OC1CC(N)C(O)C(C)O1 (configuration not stated)
viability, T/C (compound 0.0316 µM): 36.9% and 42.6%
viability, T/C (compound 0.1 µM): 24.5% and 29.6%
viability, T/C (compound 0.316 µM): 26.5% and 27.4%
viability, T/C (compound 1 µM): 16.9% and 18.4%
viability, T/C (compound 3.16 µM): 3.52% and 3.31%
viability, T/C (compound 10 µM): 1.28% and 0.73%
IC50 (curve of compound): < 31.6 nM

C=CC(=O)N1CCN(c2nc(=O)n(-c3c(C)ccnc3C(C)C)c3nc(-c4c(O)cccc4F)c(F)cc23)C(C)C1 (configuration not stated) + CN1CCN(c2cc(C(=O)Nc3cc4cc(-c5cnn(C)c5)ccc4cn3)ccn2)CC1
IC50 (curve of first compound, second compound 0.0316 µM): > 10000 nM
IC50 (curve of first compound, second compound 0.1 µM): > 10000 nM
IC50 (curve of first compound, second compound 0.316 µM): < 31.6 nM
IC50 (curve of first compound, second compound 1 µM): < 31.6 nM
IC50 (curve of first compound, second compound 3.16 µM): < 31.6 nM
IC50 (curve of first compound, second compound 10 µM): < 31.6 nM
viability, T/C (second compound 0.0316 µM, first compound 0.0316 µM): 93.4%
viability, T/C (second compound 0.0316 µM, first compound 0.1 µM): 71.5%
viability, T/C (second compound 0.0316 µM, first compound 0.316 µM): 67.1%
viability, T/C (second compound 0.0316 µM, first compound 1 µM): 90.5%
viability, T/C (second compound 0.0316 µM, first compound 3.16 µM): 111%
viability, T/C (second compound 0.0316 µM, first compound 10 µM): 95.4%
viability, T/C (second compound 0.1 µM, first compound 0.0316 µM): 62.3%
viability, T/C (second compound 0.1 µM, first compound 0.1 µM): 59%
viability, T/C (second compound 0.1 µM, first compound 0.316 µM): 58.7%
viability, T/C (second compound 0.1 µM, first compound 1 µM): 64.9%
viability, T/C (second compound 0.1 µM, first compound 3.16 µM): 66.7%
viability, T/C (second compound 0.1 µM, first compound 10 µM): 57%
viability, T/C (second compound 0.316 µM, first compound 0.0316 µM): 25.8%
viability, T/C (second compound 0.316 µM, first compound 0.1 µM): 22.5%
viability, T/C (second compound 0.316 µM, first compound 0.316 µM): 27%
viability, T/C (second compound 0.316 µM, first compound 1 µM): 30.8%
viability, T/C (second compound 0.316 µM, first compound 3.16 µM): 31.1%
viability, T/C (second compound 0.316 µM, first compound 10 µM): 22.9%
viability, T/C (second compound 1 µM, first compound 0.0316 µM): 1.96%
viability, T/C (second compound 1 µM, first compound 0.1 µM): 2.92%
viability, T/C (second compound 1 µM, first compound 0.316 µM): 1.65%
viability, T/C (second compound 1 µM, first compound 1 µM): 3.19%
viability, T/C (second compound 1 µM, first compound 3.16 µM): 2.93%
viability, T/C (second compound 1 µM, first compound 10 µM): 2.27%
viability, T/C (second compound 3.16 µM, first compound 0.0316 µM): 1.06%
viability, T/C (second compound 3.16 µM, first compound 0.1 µM): 1.37%
viability, T/C (second compound 3.16 µM, first compound 0.316 µM): 1.15%
viability, T/C (second compound 3.16 µM, first compound 1 µM): 0.96%
viability, T/C (second compound 3.16 µM, first compound 3.16 µM): 1.76%
viability, T/C (second compound 3.16 µM, first compound 10 µM): 1.78%
viability, T/C (second compound 10 µM, first compound 0.0316 µM): 0.21%
viability, T/C (second compound 10 µM, first compound 0.1 µM): 0.25%
viability, T/C (second compound 10 µM, first compound 0.316 µM): 0.24%
viability, T/C (second compound 10 µM, first compound 1 µM): 0.29%
viability, T/C (second compound 10 µM, first compound 3.16 µM): 0.41%
viability, T/C (second compound 10 µM, first compound 10 µM): 0.29%
